Consider 12 compounds from ChEMBL document CHEMBL1201862, “PubChem BioAssay data set” (2004).

Each structure is given as a SMILES string.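 Briefly, cells in 96-well plates were exposed to five compound concentrations for 48 h, and endpoints were estimated by linear interpolation. GI50 marks 50% less growth.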 The source made the active and inactive calls. No stated cut-off is given here; in the data, active = GI50 up to about 1.1 µM and inactive = higher. Bounds are passed on as bounds.

Among the test systems are SNB-19; IGROV-1; SN12C; CCRF-CEM; MDA-N; SR; HCT-116; DU-145; COLO 205; 786-0; UO-31; UACC-257; T47D; A498; HCT-15; EKVX; LOX IMVI; OVCAR-4; CAKI-1; MCF7.
What all share (experiment): growth of human tumour cells (NCI), 48 h

Consider `CC(=O)ON(C(C)=O)c1ccc(-c2nc3ccccc3s2)cc1`, for which the GI50 in the test on SNB-19 was 34.7 µM (inactive); with IGROV-1, 0.791 µM (active); in the test on SN12C, 40.7 µM (inactive); with CCRF-CEM, 7.35 µM (inactive); in the test with MDA-N, 27.2 µM (inactive); with SR, 25.6 µM (inactive). Also, the GI50 is 24.5 µM (inactive) with HCT-116; 26.2 µM (inactive) in the test with DU-145; 18.7 µM (inactive) in the test on COLO 205; 30.2 µM (inactive) with 786-0; 14.6 µM (inactive) with UO-31; 37 µM (inactive) with UACC-257. In addition, the GI50 in the test on T47D is 17.4 µM (inactive); in the test on A498 it was 0.315 µM (active); in the test on HCT-15, 24.4 µM; with EKVX, 13.1 µM (inactive); in the test with LOX IMVI, 25.5 µM (inactive); in the test with OVCAR-4, 38.7 µM (inactive).

As to `CN1CCN(CCCN2c3ccccc3Sc3ccc(C(F)(F)F)cc32)CC1`, the GI50 in the test with SNB-19 was 15.2 µM (inactive); in the test on SN12C it was 12.2 µM (inactive); in the test on MDA-N it was 3.6 µM (inactive); in the test with HCT-116, 8.04 µM (inactive); in the test on DU-145, 16.4 µM (inactive); in the test on 786-0 it was 7.93 µM (inactive). Besides, the GI50 was 5.21 µM (inactive) in the test with UO-31; 2.6 µM (inactive) with UACC-257; 10 µM (inactive) in the test with T47D; 13.6 µM (inactive) with A498; 7.1 µM in the test on HCT-15; 14.5 µM (inactive) in the test on EKVX. For the same compound, the GI50 with LOX IMVI was 4.57 µM (inactive); with OVCAR-4, 13.5 µM (inactive); in the test on CAKI-1, 10.9 µM (inactive).

As for `Cc1ccc(C)c(NC(=O)C(=O)CC(=O)c2cccc3ccccc23)c1`, the GI50 with SNB-19, in the test on IGROV-1, in the test with SN12C, in the test on CCRF-CEM, with SR and with HCT-116 was > 100 µM (inactive) in each case. In addition, the GI50 in the test with COLO 205 is > 100 µM (inactive); in the test on 786-0, > 100 µM (inactive); in the test on UO-31 it was > 100 µM (inactive); in the test on UACC-257, > 100 µM (inactive); in the test on A498, > 100 µM (inactive); with HCT-15, over 100 µM. Also, the GI50 in the test on EKVX, with LOX IMVI, in the test on OVCAR-4 and with CAKI-1 was > 100 µM (inactive) in each case.

As to `CSC(=S)N/N=C/c1nccc2ccccc12`, the GI50 was 2.29 µM (inactive) in the test with SNB-19; 1.91 µM (inactive) with IGROV-1; 1.6 µM (inactive) with SN12C; 0.115 µM (active) in the test with CCRF-CEM; 0.291 µM (active) in the test with SR; 1.25 µM (inactive) in the test with HCT-116. The GI50 with COLO 205 was 0.138 µM (active); in the test on 786-0, 2.39 µM (inactive); with UO-31, 1.94 µM (inactive); in the test with UACC-257, 2.07 µM (inactive); in the test with A498, 2.45 µM (inactive); in the test on HCT-15, 3.45 µM. For the same compound, the GI50 is 2.52 µM (inactive) with EKVX, 1.49 µM (inactive) with LOX IMVI, 1.16 µM (inactive) in the test with OVCAR-4 and 2.34 µM (inactive) in the test on CAKI-1.

As to `COC(=O)c1nsc(OC)c1Cl`, the GI50 in the test on SNB-19, in the test with IGROV-1, in the test with SN12C, in the test with CCRF-CEM, with MDA-N and in the test with HCT-116 was > 100 µM (inactive) in each case. Further, the GI50 is > 100 µM (inactive) in the test with DU-145; > 100 µM (inactive) in the test with COLO 205; > 100 µM (inactive) in the test with 786-0; > 100 µM (inactive) in the test on UO-31; > 100 µM (inactive) in the test on UACC-257; over 100 µM in the test with HCT-15. For the same compound, the GI50 in the test with EKVX, in the test with LOX IMVI, with OVCAR-4, in the test with MCF7 and with CAKI-1 was > 100 µM (inactive) throughout.

For the compound `CCC1OC2C(CC=C(C)C)=C3OC(C)(O)C(C)(CC)C(=O)C3=C3OC(=O)C=C1C32` (stereo not given), the GI50 in the test on SNB-19 was 27.4 µM (inactive); in the test on CCRF-CEM, 29.7 µM (inactive); with HCT-116 it was 15.5 µM (inactive); in the test with DU-145, 58.6 µM (inactive); in the test on COLO 205, 20.5 µM (inactive); in the test with 786-0 it was 25.4 µM (inactive). Moreover, the GI50 in the test with UO-31 is 15.3 µM (inactive); in the test on UACC-257, 26.8 µM (inactive); in the test with T47D it was 66.2 µM (inactive); with A498, 23.6 µM (inactive); in the test on HCT-15 it was 32.4 µM; in the test on EKVX, 29.4 µM (inactive). Further, the GI50 was 12.3 µM (inactive) in the test with LOX IMVI, 29.5 µM (inactive) in the test on OVCAR-4, 27.9 µM (inactive) in the test with MCF7 and 54.2 µM (inactive) in the test with CAKI-1.

With `Cc1ccc(S(=O)(=O)N2CCCSCCSCCCSCC2)cc1`, the GI50 in the test with SNB-19, with IGROV-1, with SN12C, in the test on CCRF-CEM, in the test with SR and in the test on HCT-116 was > 100 µM (inactive) in each case. In addition, the GI50 in the test with DU-145, in the test on COLO 205, with 786-0, with UO-31, in the test on UACC-257 and with T47D was > 100 µM (inactive) in each case. Moreover, the GI50 in the test with HCT-15 is over 100 µM; in the test with EKVX, > 100 µM (inactive); with LOX IMVI it was > 100 µM (inactive); with OVCAR-4 it was > 100 µM (inactive); in the test on MCF7 it was > 100 µM (inactive).

For `CCOC(=O)c1c(C)n(Cc2ccccc2)c(=O)c2ccccc2c(=O)c2c(=O)ccc(=O)c1=2`, the GI50 in the test with SNB-19 was > 100 µM (inactive); with IGROV-1, 22.3 µM (inactive); in the test on SN12C, 41 µM (inactive); in the test with CCRF-CEM, 42.1 µM (inactive); in the test with MDA-N, 73.8 µM (inactive); in the test with SR, 30.8 µM (inactive). In addition, the GI50 was 18.2 µM (inactive) with HCT-116; > 100 µM (inactive) in the test with DU-145; 43.4 µM (inactive) in the test on COLO 205; 27 µM (inactive) in the test with 786-0; 17.9 µM (inactive) in the test with UO-31; > 100 µM (inactive) with UACC-257. Further, the GI50 in the test with T47D is 30.6 µM (inactive); in the test with A498, > 100 µM (inactive); in the test with HCT-15 it was 34.8 µM; in the test with EKVX, > 100 µM (inactive); in the test with LOX IMVI, 25.2 µM (inactive); in the test on OVCAR-4, 45 µM (inactive). In the test on CAKI-1, the GI50 was 34.7 µM (inactive).

As to `Cc1nc(-[n+]2nc(-c3ccncc3)nn2-c2ccccc2)sc1C`, the GI50 in the test on SNB-19 was 35.9 µM (inactive); with IGROV-1 it was 5.01 µM (inactive); with SN12C, 49.4 µM (inactive); with CCRF-CEM it was 17.5 µM (inactive); with SR, > 100 µM (inactive); with HCT-116, 13.4 µM (inactive). For the same compound, the GI50 in the test on DU-145 is 36.2 µM (inactive); with COLO 205, 34.4 µM (inactive); in the test on 786-0, 19.1 µM (inactive); in the test with UO-31 it was 7.73 µM (inactive); in the test on UACC-257, 26.7 µM (inactive); in the test on T47D it was 39.4 µM (inactive). In addition, the GI50 is 92.7 µM (inactive) in the test with A498; 16.4 µM with HCT-15; 27.2 µM (inactive) in the test with EKVX; 2.69 µM (inactive) in the test on LOX IMVI; 18.6 µM (inactive) in the test with MCF7; 19.1 µM (inactive) with CAKI-1.

Regarding `O=S(=O)(c1ccccc1)n1c2cc3cccnc3nc2c2cccnc21`, the GI50 is 40.1 µM (inactive) in the test on SNB-19; 79.1 µM (inactive) in the test with IGROV-1; 81.3 µM (inactive) in the test on SN12C; 22.4 µM (inactive) in the test on CCRF-CEM; 38.2 µM (inactive) in the test with MDA-N; 10.9 µM (inactive) in the test with SR. The GI50 in the test with HCT-116 was 82.2 µM (inactive); in the test on COLO 205, 72.9 µM (inactive); with 786-0, 71.8 µM (inactive); in the test on UO-31, > 100 µM (inactive); in the test on UACC-257, 54.6 µM (inactive); in the test with A498, > 100 µM (inactive). In addition, the GI50 in the test with HCT-15 was 71.3 µM; in the test on EKVX it was > 100 µM (inactive); in the test with LOX IMVI it was 42.5 µM (inactive); in the test on OVCAR-4 it was 72.3 µM (inactive); with MCF7 it was 46 µM (inactive); in the test with CAKI-1, > 100 µM (inactive).

In the case of `C=CC(C)(C)n1cc(C2=C(O)C(=O)C(c3c(CC=C(C)C)[nH]c4ccccc34)=C(O)C2=O)c2ccccc21`, the GI50 was 1.96 µM (inactive) in the test on SNB-19; 0.879 µM (active) with IGROV-1; 1.57 µM (inactive) with SN12C; 1.92 µM (inactive) in the test with CCRF-CEM; 0.718 µM (active) with MDA-N; 0.745 µM (active) with SR. Further, the GI50 in the test on HCT-116 was 1.94 µM (inactive); with DU-145, 1.55 µM (inactive); in the test with COLO 205, 1.71 µM (inactive); in the test with 786-0, 2 µM (inactive); in the test with UO-31 it was 0.67 µM (active); with UACC-257, 2.88 µM (inactive). In addition, the GI50 in the test with T47D was 2.47 µM (inactive); in the test on A498 it was 1.57 µM (inactive); with HCT-15, 1.62 µM; in the test on EKVX, 1.91 µM (inactive); in the test on LOX IMVI, 0.998 µM (active); in the test on OVCAR-4, 2.19 µM (inactive). Also, in the test on CAKI-1, the GI50 was 2.39 µM (inactive).

`CCCCCCCCCCCCCCCCCC(=O)NCC(COP(=O)([O-])OCC[N+](C)(C)C)OC` (stereo not given): the GI50 in the test on SNB-19 is 1.91 µM (inactive); in the test on IGROV-1, 1.91 µM (inactive); in the test with SN12C, 3.85 µM (inactive); with CCRF-CEM it was 2.02 µM (inactive); in the test with SR, 2.16 µM (inactive); with HCT-116, 5.66 µM (inactive). Further, the GI50 in the test with COLO 205 was 1.48 µM (inactive); in the test with 786-0, 1.5 µM (inactive); in the test on UO-31, 16.9 µM (inactive); in the test with UACC-257 it was 15.9 µM (inactive); in the test with A498, 3.03 µM (inactive); in the test on HCT-15 it was 1.95 µM. The GI50 in the test on EKVX was 16.3 µM (inactive); in the test on LOX IMVI, 10.6 µM (inactive); in the test on OVCAR-4 it was 3.6 µM (inactive); in the test with CAKI-1, 2.44 µM (inactive).
